Experimental data reported in EP3323412A1, “FORMULATION COMPRISING 4-METHYLPYRAZOLE” (Amalicon Holding AG, priority 2016, dated 2018).

Assay: in vivo
Set-up: species or system dogs
Settings: dog, iv, 10 mg/kg
Protocol: The formulations of 4-MP with PEG-300 and PEG-400 show an oral bioavailability of about 110% when compared with an i.v. formulation at a dose of 10mg/kg in PK studies in dogs.
The following tables 1 to 3 show results of pharmacokinetic studies of the formulation of Example 3 (capsule containing 50 mg 4-MP and 250 mg PEG-400; Table 1) in comparison with a reference formulation (capsule containing 50 mg 4-MP and PEG-8000; Table 2) and IV administration of 4-MP. For these pharmacokinetic studies, 4-MP was administered to dogs at 10 mg/kg body weight. Table 1: Pharmacokinetic parameters of 4-methylpyrazole following oral administration of the formulation of Example 3 at 10 mg/kg: […]

- AUC(0-t) (AUC0-t): 88.3 µg·h/mL
- AUC(0-inf) (AUC0-∞): 145 µg·h/mL
- clearance (CL): 1.15 mL/min/kg
- Cmax (Cmax): 22600 ng/mL
- Vd (Vd): 0.94 L/kg
- Vd (Vdss): 0.89 L/kg
Compound: Cc1cn[nH]c1 [4-methylpyrazole, 4-Methylpyrazole]
